Key:
[1] = test system: Rox orange sorghum (Sorghum bicolor); test: Postemergence herbicidal activity, Rox orange sorghum; assay type: in vivo; conditions: foliar spray, visual after 2 weeks, 0 no injury, 100 complete kill
Outline: (§1)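 Visual injury, rated 0–100% against untreated plants 2 weeks after treatment, is the read-out. Compound was sprayed to thorough coverage on seedlings at the first or second true leaf stage, with application rates where 1 ppm equals roughly 1 g/ha.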

[2] = test system: chickweed (Stellaria media); test: Postemergence herbicidal activity, chickweed; assay type: in vivo; conditions: foliar spray, visual after 2 weeks, 0 no injury, 100 complete kill
Outline: as §1

[3] = test system: cocklebur (Xanthium strumarium); test: Preemergence herbicidal activity, cocklebur; assay type: in vivo; conditions: soil spray, visual after 3 weeks, 0 no injury, 100 complete kill or no germination
Outline: (§2)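 Test compounds are sprayed pre-emergence onto soil in seeded pots (highest rate 4.48 kg/ha) using an aqueous surfactant carrier, and the plants are grown in a greenhouse for 3 weeks. Injury is then rated by eye, 0 to 100%, against untreated plants.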

[4] = test system: barnyardgrass (Echinochloa crus-galli); test: Preemergence herbicidal activity, barnyardgrass; assay type: in vivo; conditions: soil spray, visual after 3 weeks, 0 no injury, 100 complete kill or no germination
Outline: as §2

[5] = test system: pigweed (Amaranthus retroflexus); test: Preemergence herbicidal activity, pigweed; assay type: in vivo; conditions: soil spray, visual after 3 weeks, 0 no injury, 100 complete kill or no germination
Outline: as §2

[6] = test system: wild buckwheat (Polygonum convolvulus); test: Postemergence herbicidal activity, wild buckwheat; assay type: in vivo; conditions: foliar spray, visual after 2 weeks, 0 no injury, 100 complete kill
Outline: as §1

[7] = test system: blackgrass (Alopecurus myosuroides); test: Preemergence herbicidal activity, blackgrass; assay type: in vivo; conditions: soil spray, visual after 3 weeks, 0 no injury, 100 complete kill or no germination
Outline: as §2

[8] = test system: pigweed (Amaranthus retroflexus); test: Postemergence herbicidal activity, pigweed; assay type: in vivo; conditions: foliar spray, visual after 2 weeks, 0 no injury, 100 complete kill
Outline: as §1

[9] = test system: cocklebur (Xanthium strumarium); test: Postemergence herbicidal activity, cocklebur; assay type: in vivo; conditions: foliar spray, visual after 2 weeks, 0 no injury, 100 complete kill
Outline: as §1

[10] = test system: giant foxtail (Setaria faberi); test: Postemergence herbicidal activity, giant foxtail; assay type: in vivo; conditions: foliar spray, visual after 2 weeks, 0 no injury, 100 complete kill
Outline: as §1

[11] = test system: morningglory (Ipomoea hederacea); test: Postemergence herbicidal activity, morningglory; assay type: in vivo; conditions: foliar spray, visual after 2 weeks, 0 no injury, 100 complete kill
Outline: as §1

[12] = test system: morningglory (Ipomoea hederacea); test: Preemergence herbicidal activity, morningglory; assay type: in vivo; conditions: soil spray, visual after 3 weeks, 0 no injury, 100 complete kill or no germination
Outline: as §2

[13] = test system: velvetleaf (Abutilion theophrasti); test: Preemergence herbicidal activity, velvetleaf; assay type: in vivo; conditions: soil spray, visual after 3 weeks, 0 no injury, 100 complete kill or no germination
Outline: as §2

[14] = test system: crabgrass (Digitaria sanguinalis); test: Preemergence herbicidal activity, crabgrass; assay type: in vivo; conditions: soil spray, visual after 3 weeks, 0 no injury, 100 complete kill or no germination
Outline: as §2

[15] = test system: wild oats (Avena fatua); test: Postemergence herbicidal activity, wild oats; assay type: in vivo; conditions: foliar spray, visual after 2 weeks, 0 no injury, 100 complete kill
Outline: as §1

[16] = test system: viola (Viola tricolor); test: Postemergence herbicidal activity, viola; assay type: in vivo; conditions: foliar spray, visual after 2 weeks, 0 no injury, 100 complete kill
Outline: as §1

[17] = test system: lambsquarters (Chenopodium album); test: Preemergence herbicidal activity, lambsquarters; assay type: in vivo; conditions: soil spray, visual after 3 weeks, 0 no injury, 100 complete kill or no germination
Outline: as §2

[18] = test system: blackgrass (Alopecurus myosuroides); test: Postemergence herbicidal activity, blackgrass; assay type: in vivo; conditions: foliar spray, visual after 2 weeks, 0 no injury, 100 complete kill
Outline: as §1

[19] = test system: wild oats (Avena fatua); test: Preemergence herbicidal activity, wild oats; assay type: in vivo; conditions: soil spray, visual after 3 weeks, 0 no injury, 100 complete kill or no germination
Outline: as §2

[20] = test system: giant foxtail (Setaria faberi); test: Preemergence herbicidal activity, giant foxtail; assay type: in vivo; conditions: soil spray, visual after 3 weeks, 0 no injury, 100 complete kill or no germination
Outline: as §2

[21] = test system: velvetleaf (Abutilion theophrasti); test: Postemergence herbicidal activity, velvetleaf; assay type: in vivo; conditions: foliar spray, visual after 2 weeks, 0 no injury, 100 complete kill
Outline: as §1

[22] = test system: lambsquarters (Chenopodium album); test: Postemergence herbicidal activity, lambsquarters; assay type: in vivo; conditions: foliar spray, visual after 2 weeks, 0 no injury, 100 complete kill
Outline: as §1

[23] = test system: Rox orange sorghum (Sorghum bicolor); test: Preemergence herbicidal activity, Rox orange sorghum; assay type: in vivo; conditions: soil spray, visual after 3 weeks, 0 no injury, 100 complete kill or no germination
Outline: as §2

[24] = test system: wild poinsettia (Euphorbia heterophylla); test: Preemergence herbicidal activity, wild poinsettia; assay type: in vivo; conditions: soil spray, visual after 3 weeks, 0 no injury, 100 complete kill or no germination
Outline: as §2

COc1ccsc1S(=O)(=O)Nc1nc2c(OC)cnc(OC)n2n1 [Compound 1, 3-Methoxy-N-(5,8-dimethoxy[1,2,4]triazolo[1,5-c]pyrimidin-2-yl)thiophene-2-sulfonamide]
98%: SORBI postemergence injury score 0-100 ([1]; 3.9 ppm) | POLCO postemergence injury score 0-100 ([6]; 3.9 ppm) | ABUTH preemergence injury score 0-100 ([13]; 17.5 g/Ha) | CHEAL preemergence injury score 0-100 ([17]; 17.5 g/Ha)
227 to 228 °C: melting point
85%: IPOHE postemergence injury score 0-100 ([11]; 3.9 ppm) | IPOHE preemergence injury score 0-100 ([12]; 17.5 g/Ha)
95%: AMARE postemergence injury score 0-100 ([8]; 3.9 ppm) | ALOMY postemergence injury score 0-100 ([18]; 3.9 ppm)
100%: ECHCG preemergence injury score 0-100 ([4]; 17.5 g/Ha) | AMARE preemergence injury score 0-100 ([5]; 17.5 g/Ha) | ALOMY preemergence injury score 0-100 ([7]; 17.5 g/Ha) | SETFA postemergence injury score 0-100 ([10]; 3.9 ppm) | DIGSA preemergence injury score 0-100 ([14]; 17.5 g/Ha) | AVEFA preemergence injury score 0-100 ([19]; 17.5 g/Ha) | SETFA preemergence injury score 0-100 ([20]; 17.5 g/Ha) | SORBI preemergence injury score 0-100 ([23]; 17.5 g/Ha) | EPHHL preemergence injury score 0-100 ([24]; 17.5 g/Ha)
70%: XANST preemergence injury score 0-100 ([3]; 17.5 g/Ha) | VIOTR postemergence injury score 0-100 ([16]; 3.9 ppm)
99%: AVEFA postemergence injury score 0-100 ([15]; 3.9 ppm)
75%: STEME postemergence injury score 0-100 ([2]; 3.9 ppm) | ABUTH postemergence injury score 0-100 ([21]; 3.9 ppm) | CHEAL postemergence injury score 0-100 ([22]; 3.9 ppm)
50%: XANST postemergence injury score 0-100 ([9]; 3.9 ppm)

COc1csc(Cl)c1S(=O)(=O)Nc1nc2c(OC)cnc(OC)n2n1 [Compound 18]
100%: SORBI postemergence injury score 0-100 ([1]; 15.6 ppm) | ECHCG preemergence injury score 0-100 ([4]; 4.4 g/Ha) | ALOMY preemergence injury score 0-100 ([7]; 4.4 g/Ha) | AMARE postemergence injury score 0-100 ([8]; 15.6 ppm) | XANST postemergence injury score 0-100 ([9]; 15.6 ppm) | VIOTR postemergence injury score 0-100 ([16]; 15.6 ppm) | CHEAL preemergence injury score 0-100 ([17]; 4.4 g/Ha) | SETFA preemergence injury score 0-100 ([20]; 4.4 g/Ha) | SORBI preemergence injury score 0-100 ([23]; 4.4 g/Ha)
95%: AMARE preemergence injury score 0-100 ([5]; 4.4 g/Ha) | POLCO postemergence injury score 0-100 ([6]; 15.6 ppm) | AVEFA postemergence injury score 0-100 ([15]; 15.6 ppm)
98%: DIGSA preemergence injury score 0-100 ([14]; 4.4 g/Ha)
70%: ALOMY postemergence injury score 0-100 ([18]; 15.6 ppm)
75%: IPOHE postemergence injury score 0-100 ([11]; 15.6 ppm)
80%: IPOHE preemergence injury score 0-100 ([12]; 4.4 g/Ha) | AVEFA preemergence injury score 0-100 ([19]; 4.4 g/Ha)
85%: ABUTH postemergence injury score 0-100 ([21]; 15.6 ppm)
90%: STEME postemergence injury score 0-100 ([2]; 15.6 ppm) | XANST preemergence injury score 0-100 ([3]; 4.4 g/Ha) | SETFA postemergence injury score 0-100 ([10]; 15.6 ppm) | ABUTH preemergence injury score 0-100 ([13]; 4.4 g/Ha) | CHEAL postemergence injury score 0-100 ([22]; 15.6 ppm) | EPHHL preemergence injury score 0-100 ([24]; 4.4 g/Ha)

COc1cc(OC)n2nc(NS(=O)(=O)c3cscc3OC)nc2n1 [Compound 15]
70%: IPOHE postemergence injury score 0-100 ([11]; 15.6 ppm) | IPOHE preemergence injury score 0-100 ([12]; 8.8 g/Ha) | VIOTR postemergence injury score 0-100 ([16]; 15.6 ppm) | ABUTH postemergence injury score 0-100 ([21]; 15.6 ppm)
98%: CHEAL preemergence injury score 0-100 ([17]; 8.8 g/Ha)
95%: AVEFA postemergence injury score 0-100 ([15]; 15.6 ppm)
100%: SORBI postemergence injury score 0-100 ([1]; 15.6 ppm) | ALOMY preemergence injury score 0-100 ([7]; 8.8 g/Ha) | SETFA postemergence injury score 0-100 ([10]; 15.6 ppm) | DIGSA preemergence injury score 0-100 ([14]; 8.8 g/Ha) | AVEFA preemergence injury score 0-100 ([19]; 8.8 g/Ha) | SETFA preemergence injury score 0-100 ([20]; 8.8 g/Ha) | SORBI preemergence injury score 0-100 ([23]; 8.8 g/Ha)
80%: ECHCG preemergence injury score 0-100 ([4]; 8.8 g/Ha) | POLCO postemergence injury score 0-100 ([6]; 15.6 ppm) | ALOMY postemergence injury score 0-100 ([18]; 15.6 ppm)
60%: XANST preemergence injury score 0-100 ([3]; 8.8 g/Ha)
90%: STEME postemergence injury score 0-100 ([2]; 15.6 ppm) | AMARE postemergence injury score 0-100 ([8]; 15.6 ppm) | XANST postemergence injury score 0-100 ([9]; 15.6 ppm) | ABUTH preemergence injury score 0-100 ([13]; 8.8 g/Ha) | CHEAL postemergence injury score 0-100 ([22]; 15.6 ppm) | EPHHL preemergence injury score 0-100 ([24]; 8.8 g/Ha)
85%: AMARE preemergence injury score 0-100 ([5]; 8.8 g/Ha)

COc1cc(OC)n2nc(NS(=O)(=O)c3c(OC)csc3Cl)nc2n1 [Compound 19]
50%: XANST preemergence injury score 0-100 ([3]; 8.8 g/Ha)
100%: SORBI postemergence injury score 0-100 ([1]; 15.6 ppm) | AMARE postemergence injury score 0-100 ([8]; 15.6 ppm) | SETFA postemergence injury score 0-100 ([10]; 15.6 ppm) | DIGSA preemergence injury score 0-100 ([14]; 8.8 g/Ha) | AVEFA postemergence injury score 0-100 ([15]; 15.6 ppm) | VIOTR postemergence injury score 0-100 ([16]; 15.6 ppm) | AVEFA preemergence injury score 0-100 ([19]; 8.8 g/Ha) | SETFA preemergence injury score 0-100 ([20]; 8.8 g/Ha) | CHEAL postemergence injury score 0-100 ([22]; 15.6 ppm)
90%: IPOHE preemergence injury score 0-100 ([12]; 8.8 g/Ha) | CHEAL preemergence injury score 0-100 ([17]; 8.8 g/Ha) | EPHHL preemergence injury score 0-100 ([24]; 8.8 g/Ha)
80%: IPOHE postemergence injury score 0-100 ([11]; 15.6 ppm) | ABUTH postemergence injury score 0-100 ([21]; 15.6 ppm)
70%: ALOMY postemergence injury score 0-100 ([18]; 15.6 ppm)
95%: STEME postemergence injury score 0-100 ([2]; 15.6 ppm) | ECHCG preemergence injury score 0-100 ([4]; 8.8 g/Ha) | POLCO postemergence injury score 0-100 ([6]; 15.6 ppm) | ALOMY preemergence injury score 0-100 ([7]; 8.8 g/Ha) | XANST postemergence injury score 0-100 ([9]; 15.6 ppm) | ABUTH preemergence injury score 0-100 ([13]; 8.8 g/Ha) | SORBI preemergence injury score 0-100 ([23]; 8.8 g/Ha)
75%: AMARE preemergence injury score 0-100 ([5]; 8.8 g/Ha)

— patent publication US6645918B1, “N-([1,2,4]triazoloazinyl)thiophenesulfonamide compounds and their use as herbicides” (Dow AgroSciences LLC, priority 2000, dated 2003)
